The values that follow come from ChEMBL document CHEMBL3244210, “Experimental antiulcer drugs. 1. Indole-1-alkanamides and pyrrole-1-alkanamides” (J Med Chem, 1977).

The test system of data set [1] is Rattus norvegicus. As to the kind of experiment: Antiulcer activity in sc dosed albino rat pyloric ligation model assessed as inhibition of gastric secretion administered as single dose 1 to 24 hrs prior to ligation. Type of data set: functional, organism-based. Conditions: Stomach.
In data set [2] the test system is Rattus norvegicus. As to the kind of experiment: Antiulcer activity in po dosed albino rat pyloric ligation model assessed as inhibition of gastric secretion administered as single dose 1 to 24 hrs prior to ligation. The class given is functional, organism-based. The note with it: Stomach.
Data set [3] in a line: Toxicity in histamine-induced guinea pig assessed as change in rate of beating in right atrium at 10 ' -5 to 5 x 10' -5 M after 5 mins. The class given is tissue-based, Cavia porcellus, Cardiac atrium.
The next data set has as its system Mus musculus. As to the kind of experiment: Anticholinergic activity in mouse assessed as mydriasis at 100 mg/kg, po measured after 1 to 24 hrs post dose. The arrangement: dose 100 mg/kg, route oral. The note with it: in vivo. The class given is ADME, organism-based.
The species named for data set [4] is Homo sapiens. As to the kind of experiment: Antagonist activity at histamine receptor (unknown origin) assessed as shift in histamine-induced response at 5 x 10 '-5 M relative to control.
Data set [5] is filed under the species Homo sapiens. As to the kind of experiment: Antagonist activity at histamine receptor (unknown origin) assessed as shift in histamine-induced response at 10 '-5 M relative to control.
Data set [6] in a line: Drug excretion in rat urine administered as single dose 1 to 24 hrs prior to ligation. Conditions: in vivo. Type of data set: ADME.
The species named for data set [7] is Rattus norvegicus. As to the kind of experiment: animal or person. The note with it: po, read-out: INH.
In data set [8] the test system is Rattus norvegicus. In words: Antiulcer activity in albino rat pyloric ligation model assessed as elevation of gastric pH at 6.25 mg/kg, po administered as single dose during prior ligation (Rvb =1.1 no_unit). The class given is functional, Stomach.
The species named for data set [9] is Rattus norvegicus. In words: animal or person. The note with it: Stomach, po, read-out: INH.
Data set [10] has as its system Rattus norvegicus. In words: Antiulcer activity in albino rat pyloric ligation model assessed as inhibition of total acid output at 200 mg/kg, po administered as single dose 1 hr prior ligation relative to control. The class given is functional.
Data set [11] concerns Rattus norvegicus. As to the kind of experiment: Antiulcer activity in albino rat pyloric ligation model assessed as inhibition of gastric volume at 50 mg/kg, po administered as single dose 1 hr prior ligation relative to control. Type of data set: functional. The note with it: Stomach.
Data set [12] relates to Rattus norvegicus. As to the kind of experiment: Antiulcer activity in albino rat pyloric ligation model assessed as elevation of gastric pH at 100 mg/kg, po administered as single dose 24 hrs prior ligation (Rvb =1.1 no_unit). Type of data set: functional, Stomach.
The subject of data set [13] is Rattus norvegicus. As to the kind of experiment: Antiulcer activity in albino rat pyloric ligation model assessed as elevation of gastric pH at 50 mg/kg, po administered as single dose 1 hr prior ligation (Rvb =1.1 no_unit). The class given is functional, Stomach.
The test system of data set [14] is Rattus norvegicus. As to the kind of experiment: Antiulcer activity in albino rat pyloric ligation model assessed as inhibition of gastric volume at 100 mg/kg, po administered as single dose 1 hr prior ligation relative to control. The class given is functional. Conditions: Stomach.
Data set [15] deals with Rattus norvegicus. As to the kind of experiment: Antiulcer activity in albino rat pyloric ligation model assessed as inhibition of gastric volume at 200 mg/kg, po administered as single dose 1 hr prior ligation relative to control. The class given is functional. Conditions: Stomach.
Data set [16] concerns Rattus norvegicus. In words: Antiulcer activity in albino rat pyloric ligation model assessed as inhibition of total acid output at 100 mg/kg, po administered as single dose 24 hrs prior ligation relative to control. Type of data set: functional.
Data set [17] has as its system Rattus norvegicus. In words: Antiulcer activity in albino rat pyloric ligation model assessed as inhibition of total acid output at 100 mg/kg, po administered as single dose 1 hr prior ligation relative to control. Type of data set: functional.
Data set [18] relates to Rattus norvegicus. In words: Antiulcer activity in albino rat pyloric ligation model assessed as inhibition of gastric volume at 25 mg/kg, po administered as single dose 1 hr prior ligation relative to control. The class given is functional. Conditions: Stomach.
Data set [19] has as its system Rattus norvegicus. As to the kind of experiment: Antiulcer activity in albino rat pyloric ligation model assessed as elevation of gastric pH at 25 mg/kg, po administered as single dose 1 hr prior ligation (Rvb =1.1 no_unit). Type of data set: functional, Stomach.
Data set [20] relates to Rattus norvegicus. As to the kind of experiment: Antiulcer activity in albino rat pyloric ligation model assessed as elevation of gastric pH at 200 mg/kg, po administered as single dose 1 hr prior ligation (Rvb =1.1 no_unit). The class given is functional, Stomach.
Data set [21] relates to Rattus norvegicus. As to the kind of experiment: Antiulcer activity in albino rat pyloric ligation model assessed as inhibition of total acid output at 25 mg/kg, po administered as single dose 1 hr prior ligation relative to control. Type of data set: functional.
Data set [22] deals with Rattus norvegicus. In words: Antiulcer activity in albino rat pyloric ligation model assessed as inhibition of total acid output at 50 mg/kg, po administered as single dose 1 hr prior ligation relative to control. The class given is functional.
Data set [23] relates to Rattus norvegicus. As to the kind of experiment: Antiulcer activity in albino rat pyloric ligation model assessed as elevation of gastric pH at 100 mg/kg, po administered as single dose 1 hr prior ligation (Rvb =1.1 no_unit). Type of data set: functional, Stomach.
Data set [24] concerns Rattus norvegicus. In words: Antiulcer activity in albino rat pyloric ligation model assessed as inhibition of total acid output at 100 mg/kg, po administered as single dose during ligation relative to control. The class given is functional.
Data set [25] deals with Canis familiaris. In words: Antisecretory activity in beagle dog with chronic gastric fistula assessed as inhibition of histamine-induced gastric secretion at 50 mg/kg, po measured every 15 mins post histamine treatment. Type of data set: functional, organism-based. The arrangement: dose 50 mg/kg. Conditions: Canis lupus familiaris, Stomach.
Data set [26] concerns Rattus norvegicus. As to the kind of experiment: Antiulcer activity in albino rat pyloric ligation model assessed as inhibition of gastric volume at 100 mg/kg, po administered as single dose during ligation relative to control. Conditions: Stomach. The class given is functional.
Data set [27] has as its system Canis familiaris. In words: Toxicity in beagle dog at 50 mg/kg, po. The class given is organism-based, Canis lupus familiaris. The arrangement: dose 50 mg/kg, route oral. Conditions: in vivo.
Data set [28] concerns Rattus norvegicus. As to the kind of experiment: Antiulcer activity in albino rat pyloric ligation model assessed as inhibition of gastric volume at 100 mg/kg, po administered as single dose 24 hrs prior ligation relative to control. Type of data set: functional. Conditions: Stomach.
For data set [29], the system named is Rattus norvegicus. As to the kind of experiment: Antiulcer activity in albino rat pyloric ligation model assessed as elevation of gastric pH at 100 mg/kg, po administered as single dose during prior ligation (Rvb =1.1 no_unit). Type of data set: functional, Stomach.

The source made the active and inactive calls. The calls are words filed in the database; no cut-off is given here.

For the molecule `CCc1c(C)n(CC(N)=O)c2ccccc12`, the inhibition result in the data set on Rattus norvegicus [1] and with Rattus norvegicus [2] was “inactive” in each case.

`Cc1cc2ccccc2n1C`: the inhibition entry in the data set on Rattus norvegicus [1] and with Rattus norvegicus [2] was “inactive” throughout.

Regarding `Cc1c(C)c(C)n(CC(N)=O)c1C`, the inhibition result with Rattus norvegicus [1] and with Rattus norvegicus [2] was “inactive” in each case. Moreover, the Activity entry (in data set [3]; in the data set with Mus musculus) was “Non-toxic” throughout.

For the molecule `Cc1cn(CCC(N)=O)c2ccccc12`, the inhibition entry in the data set with Rattus norvegicus [1] and with Rattus norvegicus [2] was “inactive” throughout.

On to `Cc1ccc(C)n1CCC(N)=O`, for which the inhibition result in the data set with Rattus norvegicus [1] and with Rattus norvegicus [2] was “inactive” throughout.

As to `Cc1c(C)n(CCC(N)=O)c2ccccc12`, the inhibition entry with Rattus norvegicus [1] and with Rattus norvegicus [2] was “Active” each time.

Regarding `CNC(=S)NCCSCc1[nH]cnc1C`, the values for the fold change (FC) in the data set listed under Homo sapiens [4] and in the data set filed under Homo sapiens [5] were 38 and 11, respectively.

For the molecule `Cc1[nH]c2ccccc2c1C`, the inhibition result in the data set on Rattus norvegicus [1] and with Rattus norvegicus [2] was “Active” each time. Moreover, in data set [6], the Drug excretion entry is on record as “metabolite_detected”. In addition, the Activity entry (in [3]; in the data set on Mus musculus) was “Non-toxic” each time.

In the case of `Cc1c(CO)n(CCC(N)=O)c2ccccc12`, the inhibition entry in the data set with Rattus norvegicus [1] and in the data set with Rattus norvegicus [2] was “inactive” in each case.

Regarding `Cc1c(CO)c2ccccc2n1CCC(N)=O`, the inhibition entry in the data set on Rattus norvegicus [1] was “Active”. The inhibition entry in the data set on Rattus norvegicus [2] was “inactive”.

For `Cc1cn(CC(N)=O)c2ccccc12`, the inhibition result with Rattus norvegicus [1] and with Rattus norvegicus [2] was “inactive” in each case.

Regarding `CCc1c(C)n(CCC(N)=O)c2ccccc12`, the inhibition entry in the data set with Rattus norvegicus [1] and with Rattus norvegicus [2] was “inactive” each time.

In the case of `Cc1c[nH]c2ccccc12`, the inhibition entry with Rattus norvegicus [1] and in the data set on Rattus norvegicus [2] was “Active” in each case.

Regarding `CCc1c(C)c2ccccc2n1CCC(N)=O`, the inhibition result in the data set with Rattus norvegicus [1] and with Rattus norvegicus [2] was “inactive” each time.

In the case of `NC(=O)Cn1ccc2ccccc21`, the inhibition result with Rattus norvegicus [1] and in the data set with Rattus norvegicus [2] was “inactive” in each case.

Consider `Cc1cc2ccccc2[nH]1`, for which the inhibition entry with Rattus norvegicus [1] and in the data set on Rattus norvegicus [2] was “Active” in each case.

For `Cc1c(C)c(C)n(CCC(N)=O)c1C`, the inhibition entry in the data set with Rattus norvegicus [1] and in the data set on Rattus norvegicus [2] was “inactive” each time.

With `Cc1c(CO)c2ccccc2n1CCCC(N)=O`, the inhibition entry in the data set on Rattus norvegicus [1] and in the data set on Rattus norvegicus [2] was “inactive” throughout.

As for `CN1[C@@H]2CC[C@H]1CC(OC(=O)[C@H](CO)c1ccccc1)C2` (stereo partly drawn) [ENDO-ATROPINE], the inhibition in vivo at 6.25 mg/kg is 58% in the data set filed under Rattus norvegicus [7] and 43% in the data set filed under Rattus norvegicus [9]. In addition, the pH with Rattus norvegicus [8] was found to be 1.5.

For `CCc1c(C)c2ccccc2n1CC(N)=O`, the inhibition result in the data set on Rattus norvegicus [1] and with Rattus norvegicus [2] was “inactive” in each case.

On to `Cc1ccc(C)n1CC(N)=O`, for which the inhibition entry with Rattus norvegicus [1] and with Rattus norvegicus [2] was “inactive” each time.

Take `Cc1c(C)n(CCCC(N)=O)c2ccccc12`: the inhibition entry with Rattus norvegicus [1] and in the data set on Rattus norvegicus [2] was “Active” each time.

As to `Cc1cc2ccccc2n1CCC(N)=O`, the inhibition entry with Rattus norvegicus [1] and with Rattus norvegicus [2] was “inactive” throughout.

As for `Cc1c(C)n(CC(N)=O)c2ccccc12`, the figures for the inhibition in vivo at 200 mg/kg with Rattus norvegicus [10] and with Rattus norvegicus [15] were 88% and 56%, respectively. Moreover, the results for the inhibition in vivo at 50 mg/kg in the data set on Rattus norvegicus [11] and in the data set with Rattus norvegicus [22] were 39% and 69%, respectively. Further, the pH with Rattus norvegicus [12] came to 3.2; with Rattus norvegicus [13] it was 3; in the data set on Rattus norvegicus [19] it was 2.6; in the data set with Rattus norvegicus [20], 6.7; in the data set with Rattus norvegicus [23], 6; in the data set with Rattus norvegicus [29], 1.5. Further, the inhibition in vivo at 100 mg/kg with Rattus norvegicus [14] came out at 27%; in the data set with Rattus norvegicus [16], 69%; with Rattus norvegicus [17] it was 85%; with Rattus norvegicus [24] it was 52%; in the data set on Rattus norvegicus [26], 32%; with Rattus norvegicus [28], 44%. In addition, the inhibition entry with Rattus norvegicus [1] and with Rattus norvegicus [2] was “Active” each time. For the same molecule, the inhibition in vivo at 25 mg/kg in the data set with Rattus norvegicus [18] was determined as 26%; in the data set with Rattus norvegicus [21], 47%. The Activity result in [3] is listed as “Non-toxic”; with Mus musculus, “Non-toxic”; in the data set with Canis familiaris [27], “Toxic”. Further, the result in the data set with Canis familiaris [25] was Active.

As for `CN/C(=N\CCSCc1nc[nH]c1C)NC#N` [CIMETIDINE], the values for the inhibition in vivo at 100 mg/kg in the data set on Rattus norvegicus [14] and with Rattus norvegicus [17] were 14% and 37%, respectively. Also, the pH in the data set with Rattus norvegicus [23] is recorded as 2.1.

With `Cc1c(CO)c2ccccc2n1CC(N)=O`, in the data set on Rattus norvegicus [1], the inhibition result is “Active”. The inhibition result in the data set on Rattus norvegicus [2] was “inactive”.

For `c1ccc2[nH]ccc2c1`, the inhibition entry in the data set on Rattus norvegicus [1] and with Rattus norvegicus [2] was “Active” each time.

In the case of `Cc1cc2ccccc2n1CC(N)=O`, the inhibition entry in the data set with Rattus norvegicus [1] and in the data set with Rattus norvegicus [2] was “inactive” throughout.
